13 molecules from PubChem BioAssay (NCI) can be followed below.

A word on the TGI: it is the concentration at which net growth stops. Read a low TGI as more potent growth arrest.

Structures are written as SMILES.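 Briefly, cells in 96-well plates were exposed to five compound concentrations for 48 h, and endpoints were estimated by linear interpolation. TGI is the concentration that stops growth completely.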

What all share (experiment): DTP human tumour cell line panel, 48 h
In assay [1] the test system is UACC-62 melanoma.
Assay [2] concerns HT29 colon.
For assay [3], the system named is TK-10 renal.
Assay [4] has as its system UO-31 renal.
In assay [5] the test system is CAKI-1 renal.
Assay [6] relates to SK-MEL-28 melanoma.
Assay [7] has as its system M14 melanoma.
In assay [8] the test system is K-562 leukemia.
In assay [9] the test system is MDA-MB-231 breast.
Assay [10] deals with MDA-MB-435.
The test system of assay [11] is UACC-257 melanoma.

For the molecule `CCCCCCc1cc2cc(-c3csc(CC#N)n3)c(=O)oc2cc1O`, the concentration for total growth inhibition (TGI) in assay [1] is over 100 µM; in [2] it was over 100 µM; in assay [3], over 100 µM; in assay [4] it was over 78.6 µM; in assay [5], over 100 µM; in assay [6] it was over 100 µM. For the same molecule, the TGI in [7] was over 100 µM; in [8], over 100 µM; in assay [9], 55.2 µM; in assay [10], over 100 µM; in assay [11], over 100 µM.

In the case of `CN1CCN(C2=NCCO2)CC1`, the concentration for total growth inhibition (TGI) in assay [1], in [2], in assay [3], in assay [4], in assay [5] and in assay [6] was over 100 µM each time. Besides, the TGI in assay [7], in [8], in assay [9], in assay [10] and in assay [11] was over 100 µM throughout.

As for `COc1ccc(-c2cc(O)c3nc4ccccc4n3c2)cc1`, the TGI in assay [1], in assay [2], in assay [3], in assay [4], in assay [5] and in assay [6] was over 100 µM throughout. Also, the concentration for total growth inhibition (TGI) in [7], in [8], in [9], in [10] and in assay [11] was over 100 µM each time.

With `CCOC(=O)c1csc(NC(=O)CN2CCOCC2)n1`, the TGI in assay [1], in assay [2], in assay [3], in [4], in [5] and in assay [6] was over 100 µM each time. Further, the concentration for total growth inhibition (TGI) in assay [7], in [8], in assay [9], in assay [10] and in [11] was over 100 µM each time.

Regarding `CC(C)(C)OC(=O)N[C@H]1CCN(C2CCCCC2)C1=O`, the TGI in assay [1], in [3], in assay [4], in assay [6], in assay [7] and in [8] was over 100 µM in each case. The TGI in [9] and in assay [10] was over 100 µM each time.

For `Nn1c(-c2ccccc2)nn(C(=O)c2ccccc2)c1=O`, the concentration for total growth inhibition (TGI) in assay [2], in assay [3], in [4], in assay [6], in assay [7] and in assay [8] was over 100 µM in each case. For the same molecule, the TGI in [9], in [10] and in assay [11] was over 100 µM throughout.

On to `C[C@@H]1CC[C@]2(C(=O)O)CC[C@]3(C)C(=CC[C@@H]4[C@@]5(C)CC[C@H](O)C(C)(C)[C@@H]5CC[C@]43C)[C@@H]2[C@]1(C)O`, for which the TGI came to 10.1 µM in assay [1]; 27.5 µM in assay [3]; 23.5 µM in assay [4]; 27.3 µM in assay [5]; 26.9 µM in assay [6]; 8.1 µM in assay [7]. The total growth inhibition concentration (TGI) in assay [8] is 19.6 µM; in assay [9], 22.6 µM; in assay [10], 28.8 µM; in assay [11], 19.8 µM.

Take `Nc1nc(Cl)cc(NCC2(CO)CC(=O)C2)n1`: the TGI in [1], in assay [2], in assay [3], in [4], in assay [5] and in assay [6] was over 100 µM throughout. In addition, the concentration for total growth inhibition (TGI) in assay [8], in assay [9], in [10] and in assay [11] was over 100 µM throughout.

For the molecule `O=C(N/N=C(/COc1ccc(Cl)cc1)N=Cc1ccncc1)c1ccncc1`, the TGI in assay [1], in assay [2], in assay [3], in assay [5], in assay [6] and in assay [7] was over 100 µM throughout. Besides, the total growth inhibition concentration (TGI) in [8], in [9], in [10] and in assay [11] was over 100 µM throughout.

Turning to `COc1ccc2cc(NC(=O)N/N=C\c3ccc([N+](=O)[O-])cc3)ccc2c1`, the TGI in assay [1] was over 100 µM; in [2], over 100 µM; in assay [4] it was 46.4 µM; in [5] it was over 100 µM; in [6] it was over 100 µM; in assay [7], over 100 µM. Besides, the concentration for total growth inhibition (TGI) in assay [8], in [9], in assay [10] and in assay [11] was over 100 µM each time.

With `CN1C(=O)C2CCC(=O)N2c2cccnc21` (stereo not given), the TGI in assay [1], in [2], in assay [3], in assay [4], in assay [5] and in [6] was over 100 µM each time. Besides, the TGI in assay [8], in [9], in assay [10] and in [11] was over 100 µM each time.

On to `c1ccc(N=c2sc3ccccc3nc2Nc2ccccc2)cc1`, for which the TGI in assay [1], in assay [2], in [3], in assay [4], in assay [5] and in assay [6] was over 100 µM in each case. In addition, the TGI in assay [8], in assay [9], in assay [10] and in [11] was over 100 µM in each case.

With `c1ccc(-c2nc(-c3ccccc3SSc3ccccc3-c3nc(-c4ccccc4)nn3-c3ccccc3)n(-c3ccccc3)n2)cc1`, the TGI in [1], in [3], in [4], in assay [5], in assay [6] and in assay [7] was over 100 µM in each case. Moreover, the TGI in assay [8], in assay [9] and in assay [10] was over 100 µM each time.
